Data: US9751887B2, “Imidazo[1,2-b]pyridazine derivatives as kinase inhibitors” (Daiichi Sankyo Company, Limited, priority 2012, dated 2017)

Tests used:
ROS1 [1] = biological target: T1, ROS1 (Homo sapiens, UniProt P08922); assay: ROS1 kinase inhibitory activity evaluation (mobility shift, EZ Reader II); assay type: biochemical; settings: ROS1 25 pg/μL, FL-Peptide 22 substrate, three separate measurements
T1 construct: purchased Carna Biosciences 08-163
Procedure: Next, a substrate reaction solution was prepared. […] Then, the reaction stop solution was added thereto at a concentration of 40 μL/well. Substrate phosphorylation intensity was measured using EZ Reader II (Caliper Life Sciences).

ROS1 [2] = biological target: T1, ROS1; assay: ROS1 autophosphorylation inhibitory activity evaluation (ADP-Glo); assay type: biochemical; settings: 200 nM inactive ROS1, ATP 1 mM, 25° C. 1.5 hours, ADP generated, four separate measurements
Procedure: Fifty mM HEPES (pH 7.5), 10 mM MgCl2, 0.01% Brij-58, and 2.5 mM DTT were mixed to prepare an enzymatic reaction solution. […] ATP (final concentration: 1 mM) was further added thereto at a concentration of 2.5 μL/well. The resulting plate was left standing at 25° C. for 1.5 hours to cause enzymatic reaction. After the completion of enzymatic reaction, ADP-Glo Reagent-1 (Promega, V9103) was added thereto at a concentration of 2.5 μL/well, and the plate was left standing at room temperature for 60 minutes. Then, ADP-Glo Reagent-2 (Promega) was added thereto at a concentration of 5 μL/well, and the plate was left standing at room temperature for 60 minutes. The amount of ADP generated by the autophosphorylation of ROS1 was measured using EnVision (PerkinElmer Japan). The amount of ADP generated in four separate measurements was defined as the autophosphorylation intensity of ROS1. IC50 values were calculated by curve fitting using GraphPad Prism version 4 (GraphPad software).

[3] = system: HCC78 cells having ROS1 fusion gene; assay: HCC78 cell growth assay (CellTiter-Glo); assay type: cell-based; settings: Homo sapiens, HCC78, 72 h, 72 hours culture, 2% FBS medium, luminescence, four separate measurements; read-out: growth inhibitory effect on HCC78 cells having ROS1 fusion gene IC50
Procedure: Each compound of the present invention was assayed for its cell growth inhibitory effect using HCC78 cells having ROS1 fusion gene.
The suspension was dispensed at a concentration of 100 μL/well to a 96-well culture plate for cell culture (SUMITOMO BAKELITE, Cat No MS-0096S) (hereinafter, referred to as an assay plate). […] In this context, the final concentration of DMSO was set to 0.4%. Then, the cells were cultured for 72 hours in a CO2 incubator.
CellTiter-Glo Luminescent Cell Viability Assay reagent (Promega, Cat No G7571) was dispensed at a concentration of 100 μL/well to the assay plate. The contents in each well were reacted at room temperature for 10 minutes while stirred using a plate mixer. […] The luminescence intensity of each well was measured using EnVision. The luminescence intensity of each well obtained in four separate measurements was defined as the number of cells. IC50 values were calculated by curve fitting using GraphPad Prism version 4.

T1 sequence (P08922 28-2347): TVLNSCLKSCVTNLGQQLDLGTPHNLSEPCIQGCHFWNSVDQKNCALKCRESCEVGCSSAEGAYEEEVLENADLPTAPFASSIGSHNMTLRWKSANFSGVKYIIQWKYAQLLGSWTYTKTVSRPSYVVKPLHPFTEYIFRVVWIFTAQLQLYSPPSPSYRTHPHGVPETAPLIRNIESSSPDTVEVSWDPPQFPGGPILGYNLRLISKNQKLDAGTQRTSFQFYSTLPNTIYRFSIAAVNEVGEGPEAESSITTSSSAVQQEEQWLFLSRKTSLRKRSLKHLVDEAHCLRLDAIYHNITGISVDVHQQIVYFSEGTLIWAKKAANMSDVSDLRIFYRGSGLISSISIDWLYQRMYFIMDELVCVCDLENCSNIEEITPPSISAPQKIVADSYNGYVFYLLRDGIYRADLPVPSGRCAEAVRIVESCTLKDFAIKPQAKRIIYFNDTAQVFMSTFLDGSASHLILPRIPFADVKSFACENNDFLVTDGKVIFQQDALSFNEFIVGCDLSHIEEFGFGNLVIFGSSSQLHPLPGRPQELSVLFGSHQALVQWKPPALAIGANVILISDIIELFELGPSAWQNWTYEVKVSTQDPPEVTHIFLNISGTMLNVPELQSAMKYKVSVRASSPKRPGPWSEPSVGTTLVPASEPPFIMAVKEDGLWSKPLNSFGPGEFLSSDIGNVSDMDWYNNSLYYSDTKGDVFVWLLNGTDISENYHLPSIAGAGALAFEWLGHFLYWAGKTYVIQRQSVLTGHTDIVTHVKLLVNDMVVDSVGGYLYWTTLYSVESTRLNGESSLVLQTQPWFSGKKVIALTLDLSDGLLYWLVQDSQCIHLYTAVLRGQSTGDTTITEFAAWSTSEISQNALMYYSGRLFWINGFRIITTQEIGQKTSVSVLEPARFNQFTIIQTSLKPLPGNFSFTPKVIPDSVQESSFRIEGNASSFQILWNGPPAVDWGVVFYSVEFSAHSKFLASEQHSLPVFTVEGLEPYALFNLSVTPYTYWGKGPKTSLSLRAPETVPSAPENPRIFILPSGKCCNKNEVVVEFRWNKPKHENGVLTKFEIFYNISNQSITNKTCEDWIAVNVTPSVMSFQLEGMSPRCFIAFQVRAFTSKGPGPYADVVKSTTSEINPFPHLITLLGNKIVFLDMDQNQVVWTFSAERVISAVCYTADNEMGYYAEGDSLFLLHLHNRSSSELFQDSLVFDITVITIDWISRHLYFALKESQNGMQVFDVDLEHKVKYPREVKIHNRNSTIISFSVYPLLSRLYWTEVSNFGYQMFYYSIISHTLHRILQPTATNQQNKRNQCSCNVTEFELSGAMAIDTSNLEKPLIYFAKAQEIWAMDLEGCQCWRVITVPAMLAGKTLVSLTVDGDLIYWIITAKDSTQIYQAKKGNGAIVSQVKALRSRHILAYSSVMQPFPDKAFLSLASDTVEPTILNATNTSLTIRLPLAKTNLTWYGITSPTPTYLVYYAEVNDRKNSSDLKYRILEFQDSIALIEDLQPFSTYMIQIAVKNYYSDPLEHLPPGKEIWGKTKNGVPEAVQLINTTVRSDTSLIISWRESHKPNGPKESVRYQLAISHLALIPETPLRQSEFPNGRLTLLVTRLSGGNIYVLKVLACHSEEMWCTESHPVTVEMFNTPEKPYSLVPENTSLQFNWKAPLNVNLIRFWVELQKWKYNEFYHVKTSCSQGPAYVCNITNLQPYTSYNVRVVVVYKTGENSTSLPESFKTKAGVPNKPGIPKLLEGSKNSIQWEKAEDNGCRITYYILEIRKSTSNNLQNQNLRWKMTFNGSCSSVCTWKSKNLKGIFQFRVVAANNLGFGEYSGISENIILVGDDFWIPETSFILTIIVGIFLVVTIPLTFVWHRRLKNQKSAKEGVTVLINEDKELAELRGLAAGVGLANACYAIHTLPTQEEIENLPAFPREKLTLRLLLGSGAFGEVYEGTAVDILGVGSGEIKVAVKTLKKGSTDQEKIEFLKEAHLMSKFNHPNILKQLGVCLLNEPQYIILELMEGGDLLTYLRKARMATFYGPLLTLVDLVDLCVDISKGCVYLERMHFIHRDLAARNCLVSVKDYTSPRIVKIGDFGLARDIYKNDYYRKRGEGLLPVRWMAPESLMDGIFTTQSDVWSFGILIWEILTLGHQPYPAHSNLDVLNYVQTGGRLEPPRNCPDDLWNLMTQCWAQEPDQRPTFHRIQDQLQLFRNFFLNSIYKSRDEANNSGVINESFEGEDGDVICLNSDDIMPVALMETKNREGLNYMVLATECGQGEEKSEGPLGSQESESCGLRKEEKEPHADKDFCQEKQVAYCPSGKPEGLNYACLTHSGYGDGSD

Structure (SMILES) | IC50 (ROS1 [1]) | IC50 (ROS1 [2]) | IC50 [3]
C[C@@H](Oc1ccc2ncc(-c3ccc(N4C[C@@H](N)CC4=O)c(F)c3)n2n1)c1cncc(F)c1 [Example 109, (4S)-4-Amino-1-[2-fluoro-4-[6-[(1R)-1-(5-fluoro-3-pyridyl)ethoxy]imidazo[1,2-b]pyridazin-3-yl]phenyl]pyrrolidin-2-one] | 10 to 60 nM | 100 to 150 nM | 20 to 100 nM
Cc1cc(N2C[C@@H](N)CC2=O)ccc1-c1cnc2ccc(N[C@H](C)c3ccccc3)nn12 [Example 89, (4S)-4-Amino-1-[3-methyl-1-[6-[[(1R)-1-phenylethyl]amino]imidazo[1,2-b]yl]phenyl]pyrrolidin-2-one] | 10 to 60 nM | 20 to 100 nM | 100 to 600 nM
CC(Oc1ccc2ncc(-c3ccc(N4C[C@@H](N)CC4=O)cc3)n2n1)c1cc(C#N)n(C)n1 (stereo partly drawn) [Example 116, 5-[1-[3-[4-[(4S)-4-Amino-2-oxopyrrolidin-1-yl]phenyl]imidazo[1,2-b]pyridazin-6-yl]oxyethyl]-2-methylpyrazole-3-carbonitrile] | 10 to 60 nM | 100 to 150 nM | 100 to 600 nM
c1ccc(CNc2ccc3ncc(-c4ccc(OCC[C@@H]5CCCN5)cc4)n3n2)cc1 [Example 6, N-Benzyl-3-[4-[2-[(2S)-pyrrolidin-2-yl]ethoxy]phenyl]imidazo[1,2-b]pyridazin-6-amine] | 1 to 10 nM | 20 to 100 nM | 20 to 100 nM
C[C@@H](Oc1ccc2ncc(-c3ccc(OCC4CCNCC4)cc3)n2n1)c1cccc(F)c1 [Example 17, 6-[(1R)-1-(3-Fluorophenyl)ethoxy]-3-[4-(4-piperidylmethoxy)phenyl]imidazo[1,2-b]pyridazine] | 1 to 10 nM | 20 to 100 nM | 100 to 600 nM
C[C@@H](Oc1ccc2ncc(-c3ccc(N4C[C@@H](N(C)C)CC4=O)cc3)n2n1)c1cccc(F)c1 [Example 135, (4S)-4-(Dimethylamino)-1-[4-[6-[(1R)-1-(3-fluorophenyl)ethoxy]imidazo[1,2-b]pyridazin-3-yl]phenyl]pyrrolidin-2-one] | 1 to 10 nM | 20 to 100 nM | 100 to 600 nM
CN(Cc1cc(F)ccc1F)c1ccc2ncc(-c3ccc(N4C[C@@H](N)CC4=O)cc3)n2n1 [Example 97, (4S)-4-Amino-1-[4-[6-[(2,5-difluorophenyl)methyl-methylamino]imidazo[1,2-b]pyridazin-3-yl]phenyl]pyrrolidin-2-one] | 1 to 10 nM | 20 to 100 nM | < 20 nM
NCC1CC(=O)N(c2ccc(-c3cnc4ccc(OCc5cccc(F)c5)nn34)cc2)C1 (stereo not drawn) [Example 74, 4-(Aminomethyl)-1-[4-[6-[(3-fluorophenyl)methoxy]imidazo[1,2-b]pyridazin-3-yl]phenyl]pyrrolidin-2-one] | 1 to 10 nM | 100 to 150 nM | 100 to 600 nM
CN(Cc1cncc(Cl)c1)c1ccc2ncc(-c3ccc(N4C[C@@H](N)CC4=O)cc3)n2n1 [Example 122, (4S)-4-Amino-1-[4-[6-[(5-chloro-3-pyridyl)methyl-methylamino]imidazo[1,2-b]pyridazin-3-yl]phenyl]pyrrolidin-2-one] | 1 to 10 nM | 20 to 100 nM | 20 to 100 nM
C[C@@H](Oc1ccc2ncc(-c3ccc(OC4CCNCC4)cc3)n2n1)c1cccc(F)c1 [Example 15, 6-[(1R)-1-(3-Fluorophenyl)ethoxy]-3-[4-(4-piperidyloxy)phenyl]imidazo[1,2-b]pyridazine] | 1 to 10 nM | 20 to 100 nM | 100 to 600 nM
NCCOc1ccc(-c2cnc3ccc(OCc4cccc(F)c4)nn23)cc1 [Example 14, 2-[4-[6-[(3-Fluorophenyl)methoxy]imidazo[1,2-b]pyridazin-3-yl]phenoxy]ethanamine] | 1 to 10 nM | 20 to 100 nM | 100 to 600 nM
CN(Cc1cccc(F)c1)c1ccc2ncc(-c3ccc(N4C[C@@H](N)CC4=O)c(F)c3)n2n1 [Example 83, (4S)-4-Amino-1-[2-fluoro-4-[6-[(3-fluorophenyl)methyl-methylamino]imidazo[1,2-b]pyridazin-3-yl]phenyl]pyrrolidin-2-one] | 1 to 10 nM | 20 to 100 nM | 20 to 100 nM

Results, then the compound that gave them:

IC50 (ROS1 [1]) | IC50 (ROS1 [2]) | IC50 [3] | Structure (SMILES)
< 1 nM | < 20 nM | < 20 nM | C[C@@H](Nc1ccc2ncc(-c3ccc(OC[C@@H]4C[C@H](F)CN4)nc3)n2n1)c1cccc(F)c1 [Example 47, N-[(1R)-1-(3-Fluorophenyl)ethyl]-3-[6-[[(2S,4S)-4-fluoropyrrolidin-2-yl]methoxy]-3-pyridyl]imidazo[1,2-b]pyridazin-6-amine]
1 to 10 nM | 20 to 100 nM | 20 to 100 nM | Cc1cc(-c2cnc3ccc(OC(C)c4cncc(F)c4)nn23)ccc1N1C[C@@H](N)CC1=O (stereo partly drawn) [Example 111]
< 1 nM | < 20 nM | 20 to 100 nM | CC(Oc1ccc2ncc(-c3ccc(N4C[C@@H](N)CC4=O)cc3)n2n1)c1cc(F)ccc1F (stereo partly drawn) [Example 104, (4S)-4-Amino-1-[4-[6-[1-(2,5-difluorophenyl)ethoxy]imidazo[1,2-b]pyridazin-3-yl]phenyl]pyrrolidin-2-one]
1 to 10 nM | 100 to 150 nM | 100 to 600 nM | C[C@@H](Nc1ccc2ncc(-c3ccc(F)c(OC[C@@H]4CCN4)c3)n2n1)c1cccc(F)c1 [Example 64, 3-[3-[[(2S)-Azetidin-2-yl]methoxy]-4-fluoro-phenyl]-N-[(1R)-1-(3-fluorophenyl)ethyl]imidazo[1,2-b]pyridazin-6-amine]
< 1 nM | < 20 nM | < 20 nM | C[C@@H](Nc1ccc2ncc(-c3ccc(OC[C@H](N)CO)cc3)n2n1)c1cccc(F)c1 [Example 59, (2R)-2-Amino-3-[4-[6-[[(1R)-1-(3-fluorophenyl)ethyl]amino]imidazo[1,2-b]pyridazin-3-yl]phenoxy]propan-1-ol]
1 to 10 nM | < 20 nM | 20 to 100 nM | C[C@@H](Oc1ccc2ncc(-c3ccc(N4C[C@@H](N)CC4=O)cc3F)n2n1)c1cncc(F)c1 [Example 110, (4S)-4-Amino-1-[3-fluoro-4-[6-[(1R)-1-(5-fluoro-3-pyridyl)ethoxy]imidazo[1,2-b]pyridazin-3-yl]phenyl]pyrrolidin-2-one]
1 to 10 nM | < 20 nM | 20 to 100 nM | CN(Cc1cccc(F)c1F)c1ccc2ncc(-c3ccc(N4C[C@@H](N)CC4=O)cc3)n2n1 [Example 98, (4S)-4-Amino-1-[4-[6-[(2,3-difluorophenyl)methyl-methylamino]imidazo[1,2-b]pyridazin-3-yl]phenyl]pyrrolidin-2-one]
1 to 10 nM | < 20 nM | < 20 nM | CN(Cc1cncc(F)c1)c1ccc2ncc(-c3ccc(N4CC(C)(N)CC4=O)cc3)n2n1 (stereo not drawn) [Example 119, 4-Amino-1-[4-[6-[(5-fluoro-3-pyridyl)methyl-methylamino]imidazo[1,2-b]pyridazin-3-yl]phenyl]-4-methylpyrrolidin-2-one]
< 1 nM | < 20 nM | 20 to 100 nM | CN[C@H]1CC(=O)N(c2ccc(-c3cnc4ccc(O[C@H](C)c5cccc(F)c5)nn34)cc2)C1 [Example 80, (4S)-1-[4-[6-[(1R)-1-(3-Fluorophenyl)ethoxy]imidazo[1,2-b]pyridazin-3-yl]phenyl]-4-(methylamino)pyrrolidin-2-one]
< 1 nM | < 20 nM | 20 to 100 nM | CN(Cc1cccc(F)c1)c1ccc2ncc(-c3ccc(N4C[C@@H](N)CC4=O)nc3)n2n1 [Example 128, (4S)-4-Amino-1-[5-[6-[(3-fluorophenyl)methyl-methylamino]imidazo[1,2-b]pyridazin-3-yl]-2-pyridyl]pyrrolidin-2-one]
< 1 nM | < 20 nM | 20 to 100 nM | C[C@@H](Nc1ccc2ncc(-c3cccc(OC[C@@H]4CCCN4)c3)n2n1)c1cccc(F)c1 [Example 50, N-[(1R)-1-(3-Fluorophenyl)ethyl]-3-[3-[[(2S)-pyrrolidin-2-yl]methoxy]phenyl]imidazo[1,2-b]pyridazin-6-amine]
< 1 nM | < 20 nM | < 20 nM | CC(Oc1ccc2ncc(-c3ccc(N4C[C@@H](N)CC4=O)cc3)n2n1)c1cncc(F)c1 (stereo partly drawn) [Example 107]
< 1 nM | < 20 nM | < 20 nM | CC(Oc1ccc2ncc(-c3ccc(N4C[C@@H](N)CC4=O)cc3)n2n1)c1cc(F)cnc1F (stereo partly drawn) [Example 106]
